Results taken from US8017350B2, “Glimepiride- and insulin-induced glycosylphosphatidylinositol-specific phospholipase C regulation” (Sanofi-Aventis Deutschland GmbH, priority 2004, dated 2011).

Biological target: T1, bovine AChE (Bos taurus, UniProt P23795)
T1 construct: solubilized and partially purified bovine erythrocyte AChE; from tissue; host or cells: bovine erythrocytes
Experiment: AChE activity
Type: biochemical
Details: 50 μM
Protocol: Electroporation was performed as described in “Müller, G. et al., (2000) Mol. Cell. Biol. 20: 4708-4723”. Lipolysis was determined as release of glycerol or fluorescent NBD-FA from prelabeled and isoproterenol-stimulated adipocytes as described in “Müller, G. et al., (2003) Biochimie 85: 1245-1256”. Gce1 was detected by photolabeling of solubilized plasma membranes or hc/lcDIGs (10-50 μg protein) with 8-N3—[^32P]cAMP and subsequent phosphorimaging as described in “Müller, G. et al., (1994) Biochemistry 33: 12149-12159”. 5′-Nuc, aP and AChE activities were measured according to “Eliakim, R. et al., (1990) Biochim. Biophys. Acta 1355: 293-302”. Protein was determined using the BCA protein determination kit from Pierce (Rockford, Ill.) and BSA as calibration standard. SDS-PAGE was performed using precast gels (Novex, San Diego, Calif.; 10% Bis-Tris resolving gel, morpholinopropanesulfonic acid-SDS running buffer). Lumiimages were evaluated on a LumiImager using LumiImager software (Roche Diagnostics). Phosphor- and fluorescence images were processed and quantified using the Storm 860 PhosphorImager system (Molecular Dynamics, Gelsenkirchen, Germany). Figures were constructed using the ADOBE PHOTOSHOP software (Adobe Systems, Mountain View, Calif.).
FIG. 3: Selectivity of GPI-2350. […]

T1 sequence (P23795 31-614 isoform P23795-2 limits assumed): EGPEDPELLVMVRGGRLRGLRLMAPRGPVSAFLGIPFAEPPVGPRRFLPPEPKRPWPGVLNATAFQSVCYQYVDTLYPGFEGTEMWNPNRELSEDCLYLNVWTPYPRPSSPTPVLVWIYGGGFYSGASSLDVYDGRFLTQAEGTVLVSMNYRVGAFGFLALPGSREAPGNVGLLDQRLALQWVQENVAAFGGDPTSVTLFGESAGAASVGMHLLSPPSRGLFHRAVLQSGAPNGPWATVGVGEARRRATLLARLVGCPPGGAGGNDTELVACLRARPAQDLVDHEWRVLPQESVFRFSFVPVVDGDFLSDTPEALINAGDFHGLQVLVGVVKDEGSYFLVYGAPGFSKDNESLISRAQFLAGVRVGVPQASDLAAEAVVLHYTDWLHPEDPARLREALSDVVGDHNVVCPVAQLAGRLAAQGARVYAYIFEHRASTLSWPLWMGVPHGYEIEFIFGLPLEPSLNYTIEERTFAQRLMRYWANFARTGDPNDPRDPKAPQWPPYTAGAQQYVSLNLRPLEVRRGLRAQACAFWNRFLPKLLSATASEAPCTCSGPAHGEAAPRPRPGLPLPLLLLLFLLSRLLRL

CCCCCCCCCCCCP1(=O)O[C@@H]2[C@H](O)[C@@H](O)[C@H](O)[C@@H](O)[C@@H]2O1 (stereo partly shown) [GPI-2350, myo-inositol-1,2-cyclo-dodecylphosphonic acid]
effect on AChE: not significantly affected
